Values quoted from earlier work as cited in patent US20060210492A1 (priority 2005, published 2006).

solubility in water: practically insoluble
SMILES: CO[C@H]1/C=C/O[C@@]2(C)Oc3c(C)c(O)c4c(O)c(c5c(nc6cc(C)ccn65)c4c3C2=O)NC(=O)/C(C)=C\C=C\[C@H](C)[C@H](O)[C@@H](C)[C@@H](O)[C@@H](C)[C@H](OC(C)=O)[C@@H]1C [rifaximin, (2S,16Z,18E,20S,21S,22R,23R,24R,25S,26S,27S,28E)-5,6,21,23,25-pentahydroxy-27-methoxy-2,4,11,16,20,22,24,26-octamethyl-2,7-(epoxypentadeca-[1,11,13]trienimino)benzofuro[4,5-e]pyrido[1,2-a]-benzimidazole-1,15(2H)-dione,25-acetate]
